Assay results as given in PubChem BioAssay (NCI).
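How tested: cells in 96-well plates exposed to compound for 48 hours at five concentrations. TGI denotes the concentration required for complete inhibition of growth.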

What was measured:
Experiment in all cases: growth of human tumour cells (NCI), 48 h
ACHN renal = system: ACHN renal
EKVX NSCLC = system: EKVX NSCLC
HOP-62 NSCLC = system: HOP-62 NSCLC
LOX IMVI melanoma = system: LOX IMVI melanoma
OVCAR-3 ovarian = system: OVCAR-3 ovarian
OVCAR-4 ovarian = system: OVCAR-4 ovarian
RPMI-8226 leukemia = system: RPMI-8226 leukemia
SK-MEL-5 melanoma = system: SK-MEL-5 melanoma
SN12C renal = system: SN12C renal
SNB-19 CNS = system: SNB-19 CNS
SW-620 colon = system: SW-620 colon
UACC-62 melanoma = system: UACC-62 melanoma

Compound: CCC(c1ccc(OC)cc1)C1NC(=S)NC1=O (centres undefined)
- TGI (ACHN renal): > 50 µM
- TGI (EKVX NSCLC): > 50 µM
- TGI (HOP-62 NSCLC): > 50 µM
- TGI (LOX IMVI melanoma): > 50 µM
- TGI (OVCAR-3 ovarian): > 50 µM
- TGI (OVCAR-4 ovarian): > 50 µM
- TGI (RPMI-8226 leukemia): > 50 µM
- TGI (SK-MEL-5 melanoma): > 50 µM
- TGI (SN12C renal): > 50 µM
- TGI (SNB-19 CNS): > 50 µM
- TGI (SW-620 colon): > 50 µM

Compound: CC(C)(CN1CCCCC1)C(=O)CC(SCCN)c1ccc(Cl)cc1 (centres undefined)
- TGI (ACHN renal): 9.85 µM
- TGI (EKVX NSCLC): 4.53 µM
- TGI (HOP-62 NSCLC): 12.8 µM
- TGI (LOX IMVI melanoma): 4.85 µM
- TGI (OVCAR-3 ovarian): 3.96 µM
- TGI (OVCAR-4 ovarian): 10.1 µM
- TGI (RPMI-8226 leukemia): 3.86 µM
- TGI (SK-MEL-5 melanoma): 3.25 µM
- TGI (SN12C renal): 3.42 µM
- TGI (SNB-19 CNS): 4.54 µM
- TGI (SW-620 colon): 3.94 µM
- TGI (UACC-62 melanoma): 3.56 µM

Compound: C#C[C@]1(O)[C@@H](CO)O[C@@H](n2ccc(N)nc2=O)[C@@H]1O
- TGI (ACHN renal): 0.612 µM
- TGI (EKVX NSCLC): > 19.9 µM
- TGI (LOX IMVI melanoma): 0.0945 µM
- TGI (OVCAR-3 ovarian): > 20.8 µM
- TGI (OVCAR-4 ovarian): 5.33 µM
- TGI (RPMI-8226 leukemia): 0.192 µM
- TGI (SK-MEL-5 melanoma): 0.371 µM
- TGI (SNB-19 CNS): > 24 µM
- TGI (SW-620 colon): 3.92 µM
- TGI (UACC-62 melanoma): 0.4 µM

Compound: CCOC(=O)C1(C#N)C(C#N)(C#N)C1(C#N)C#N
- TGI (ACHN renal): > 100 µM
- TGI (EKVX NSCLC): > 100 µM
- TGI (HOP-62 NSCLC): > 100 µM
- TGI (LOX IMVI melanoma): > 100 µM
- TGI (OVCAR-4 ovarian): > 100 µM
- TGI (RPMI-8226 leukemia): > 100 µM
- TGI (SK-MEL-5 melanoma): > 100 µM
- TGI (SN12C renal): > 100 µM
- TGI (SNB-19 CNS): > 100 µM
- TGI (SW-620 colon): > 100 µM
- TGI (UACC-62 melanoma): > 100 µM

Compound: NC(Cc1ccccc1)c1nn[nH]n1 (centres undefined)
- TGI (ACHN renal): > 100 µM
- TGI (EKVX NSCLC): > 100 µM
- TGI (HOP-62 NSCLC): > 100 µM
- TGI (LOX IMVI melanoma): > 100 µM
- TGI (OVCAR-3 ovarian): > 100 µM
- TGI (OVCAR-4 ovarian): > 100 µM
- TGI (RPMI-8226 leukemia): > 100 µM
- TGI (SK-MEL-5 melanoma): > 100 µM
- TGI (SN12C renal): > 100 µM
- TGI (SNB-19 CNS): > 100 µM
- TGI (SW-620 colon): > 100 µM
- TGI (UACC-62 melanoma): > 100 µM

Compound: CC(=O)OCC1OC(OC(C)=O)C(Nc2ncc(-c3ccc(C)cc3)s2)C(OC(C)=O)C1OC(C)=O (centres undefined)
- TGI (ACHN renal): 27.7 µM
- TGI (EKVX NSCLC): 27.6 µM
- TGI (HOP-62 NSCLC): 42.2 µM
- TGI (LOX IMVI melanoma): 32 µM
- TGI (OVCAR-3 ovarian): 35.1 µM
- TGI (OVCAR-4 ovarian): 35.4 µM
- TGI (RPMI-8226 leukemia): 64.3 µM
- TGI (SK-MEL-5 melanoma): 29.2 µM
- TGI (SN12C renal): 40.8 µM
- TGI (SNB-19 CNS): 52.9 µM
- TGI (SW-620 colon): 45.4 µM
- TGI (UACC-62 melanoma): 29 µM

Compound: COC(=O)c1ccc(C)cc1C1CN=NC12Cc1cc(C)ccc1C2=O (centres undefined)
- TGI (ACHN renal): > 100 µM
- TGI (EKVX NSCLC): > 95.5 µM
- TGI (HOP-62 NSCLC): > 100 µM
- TGI (LOX IMVI melanoma): 42.9 µM
- TGI (OVCAR-3 ovarian): > 80.1 µM
- TGI (OVCAR-4 ovarian): 98.7 µM
- TGI (RPMI-8226 leukemia): 66.2 µM
- TGI (SK-MEL-5 melanoma): 21.6 µM
- TGI (SN12C renal): > 87.1 µM
- TGI (SNB-19 CNS): > 100 µM
- TGI (SW-620 colon): > 100 µM
- TGI (UACC-62 melanoma): > 87.3 µM

Compound: O=C1CCCC2=C1CC1=C(CCCC1=O)N2c1ccc([N+](=O)[O-])cc1
- TGI (ACHN renal): > 100 µM
- TGI (EKVX NSCLC): > 100 µM
- TGI (LOX IMVI melanoma): > 100 µM
- TGI (OVCAR-3 ovarian): > 100 µM
- TGI (OVCAR-4 ovarian): > 100 µM
- TGI (RPMI-8226 leukemia): > 100 µM
- TGI (SK-MEL-5 melanoma): > 100 µM
- TGI (SN12C renal): > 100 µM
- TGI (SNB-19 CNS): > 100 µM
- TGI (SW-620 colon): > 100 µM
- TGI (UACC-62 melanoma): > 100 µM

Compound: OCC1OC(n2cnc3c(SCc4ccccc4)ncnc32)C(O)C1O (centres undefined)
- TGI (ACHN renal): > 100 µM
- TGI (EKVX NSCLC): > 100 µM
- TGI (HOP-62 NSCLC): > 100 µM
- TGI (LOX IMVI melanoma): > 100 µM
- TGI (OVCAR-3 ovarian): > 100 µM
- TGI (OVCAR-4 ovarian): > 100 µM
- TGI (RPMI-8226 leukemia): > 100 µM
- TGI (SK-MEL-5 melanoma): > 100 µM
- TGI (SN12C renal): > 100 µM
- TGI (SNB-19 CNS): > 100 µM
- TGI (SW-620 colon): > 100 µM
- TGI (UACC-62 melanoma): > 100 µM

Compound: N#CCC1C2CC3C(C2=O)C13 (centres undefined)
- TGI (ACHN renal): > 100 µM
- TGI (EKVX NSCLC): > 100 µM
- TGI (HOP-62 NSCLC): > 100 µM
- TGI (LOX IMVI melanoma): > 100 µM
- TGI (OVCAR-3 ovarian): > 100 µM
- TGI (OVCAR-4 ovarian): > 100 µM
- TGI (RPMI-8226 leukemia): > 100 µM
- TGI (SK-MEL-5 melanoma): > 100 µM
- TGI (SN12C renal): > 100 µM
- TGI (SNB-19 CNS): > 100 µM
- TGI (SW-620 colon): > 100 µM
- TGI (UACC-62 melanoma): > 100 µM

Compound: COc1ccc(NS(=O)c2c(C)cc(C)cc2C)cc1 (centres undefined)
- TGI (ACHN renal): > 100 µM
- TGI (EKVX NSCLC): > 100 µM
- TGI (HOP-62 NSCLC): > 100 µM
- TGI (LOX IMVI melanoma): > 100 µM
- TGI (OVCAR-3 ovarian): > 100 µM
- TGI (OVCAR-4 ovarian): > 100 µM
- TGI (RPMI-8226 leukemia): > 100 µM
- TGI (SK-MEL-5 melanoma): 92.1 µM
- TGI (SN12C renal): > 100 µM
- TGI (SNB-19 CNS): > 100 µM
- TGI (SW-620 colon): > 100 µM
- TGI (UACC-62 melanoma): > 100 µM

Compound: O=[N+]([O-])c1ccc(CN=C2NNS(=O)(=O)c3ccccc32)cc1
- TGI (ACHN renal): > 100 µM
- TGI (EKVX NSCLC): > 100 µM
- TGI (LOX IMVI melanoma): > 100 µM
- TGI (OVCAR-3 ovarian): > 100 µM
- TGI (OVCAR-4 ovarian): > 100 µM
- TGI (RPMI-8226 leukemia): > 100 µM
- TGI (SK-MEL-5 melanoma): > 100 µM
- TGI (SN12C renal): > 100 µM
- TGI (SNB-19 CNS): > 100 µM
- TGI (SW-620 colon): > 100 µM
- TGI (UACC-62 melanoma): > 100 µM

Compound: Nc1nc(Br)nc2ncn(C3CC(O)C(CO)O3)c12 (centres undefined)
- TGI (ACHN renal): > 100 µM
- TGI (EKVX NSCLC): > 100 µM
- TGI (HOP-62 NSCLC): > 100 µM
- TGI (LOX IMVI melanoma): > 100 µM
- TGI (OVCAR-3 ovarian): > 100 µM
- TGI (OVCAR-4 ovarian): > 100 µM
- TGI (RPMI-8226 leukemia): > 100 µM
- TGI (SK-MEL-5 melanoma): > 100 µM
- TGI (SN12C renal): > 100 µM
- TGI (SNB-19 CNS): > 100 µM
- TGI (SW-620 colon): > 100 µM
- TGI (UACC-62 melanoma): > 100 µM

Compound: COC1=CC(=O)c2c(cc3c(c2O)-c2c(OC)cc4cc5c(c(O)c4c2OC(=O)CC(C)(O)C3)C(=O)CC(C)(O)C5)C1=O (centres undefined)
- TGI (ACHN renal): 8.35 µM
- TGI (EKVX NSCLC): 5.58 µM
- TGI (HOP-62 NSCLC): 2.76 µM
- TGI (LOX IMVI melanoma): 2.94 µM
- TGI (OVCAR-3 ovarian): 2.15 µM
- TGI (OVCAR-4 ovarian): 10.3 µM
- TGI (RPMI-8226 leukemia): 5.85 µM
- TGI (SK-MEL-5 melanoma): 0.606 µM
- TGI (SN12C renal): 3.27 µM
- TGI (SNB-19 CNS): 4.13 µM
- TGI (SW-620 colon): 6.3 µM
- TGI (UACC-62 melanoma): 2.57 µM

Compound: CN1C(C)(C)CC(=O)C(Br)C1(C)C (centres undefined)
- TGI (ACHN renal): > 100 µM
- TGI (EKVX NSCLC): > 100 µM
- TGI (HOP-62 NSCLC): > 100 µM
- TGI (LOX IMVI melanoma): > 100 µM
- TGI (OVCAR-3 ovarian): > 100 µM
- TGI (OVCAR-4 ovarian): > 100 µM
- TGI (RPMI-8226 leukemia): > 100 µM
- TGI (SK-MEL-5 melanoma): > 100 µM
- TGI (SN12C renal): > 100 µM
- TGI (SNB-19 CNS): > 100 µM
- TGI (SW-620 colon): > 100 µM
- TGI (UACC-62 melanoma): > 100 µM

Compound: O=C1Oc2cc3c(c4cccc1c24)OCN(c1ccccc1)C3
- TGI (ACHN renal): > 100 µM
- TGI (EKVX NSCLC): > 100 µM
- TGI (HOP-62 NSCLC): > 100 µM
- TGI (LOX IMVI melanoma): > 100 µM
- TGI (OVCAR-3 ovarian): > 100 µM
- TGI (OVCAR-4 ovarian): > 100 µM
- TGI (RPMI-8226 leukemia): > 100 µM
- TGI (SK-MEL-5 melanoma): > 100 µM
- TGI (SN12C renal): > 100 µM
- TGI (SNB-19 CNS): > 100 µM
- TGI (SW-620 colon): > 100 µM
- TGI (UACC-62 melanoma): > 100 µM

Compound: CC(=O)N=c1ccc2nc(N)nn(O)c-2c1
- TGI (ACHN renal): > 100 µM
- TGI (EKVX NSCLC): > 100 µM
- TGI (HOP-62 NSCLC): > 100 µM
- TGI (LOX IMVI melanoma): > 100 µM
- TGI (OVCAR-3 ovarian): > 100 µM
- TGI (OVCAR-4 ovarian): > 100 µM
- TGI (RPMI-8226 leukemia): > 100 µM
- TGI (SK-MEL-5 melanoma): > 100 µM
- TGI (SN12C renal): > 100 µM
- TGI (SNB-19 CNS): > 100 µM
- TGI (SW-620 colon): > 100 µM
- TGI (UACC-62 melanoma): > 100 µM

Compound: COC(=O)CC(CNC(=O)OCc1ccccc1)OCc1ccc(OC)cc1 (centres undefined)
- TGI (ACHN renal): > 100 µM
- TGI (EKVX NSCLC): > 100 µM
- TGI (LOX IMVI melanoma): > 100 µM
- TGI (OVCAR-3 ovarian): > 100 µM
- TGI (OVCAR-4 ovarian): > 100 µM
- TGI (RPMI-8226 leukemia): > 100 µM
- TGI (SK-MEL-5 melanoma): > 100 µM
- TGI (SN12C renal): > 100 µM
- TGI (SNB-19 CNS): > 100 µM
- TGI (SW-620 colon): > 100 µM
- TGI (UACC-62 melanoma): > 100 µM
